The target in experiment [1] is T1, Gastric inhibitory polypeptide receptor (Homo sapiens, UniProt P48546).
T1 sequence (P48546 whole entry): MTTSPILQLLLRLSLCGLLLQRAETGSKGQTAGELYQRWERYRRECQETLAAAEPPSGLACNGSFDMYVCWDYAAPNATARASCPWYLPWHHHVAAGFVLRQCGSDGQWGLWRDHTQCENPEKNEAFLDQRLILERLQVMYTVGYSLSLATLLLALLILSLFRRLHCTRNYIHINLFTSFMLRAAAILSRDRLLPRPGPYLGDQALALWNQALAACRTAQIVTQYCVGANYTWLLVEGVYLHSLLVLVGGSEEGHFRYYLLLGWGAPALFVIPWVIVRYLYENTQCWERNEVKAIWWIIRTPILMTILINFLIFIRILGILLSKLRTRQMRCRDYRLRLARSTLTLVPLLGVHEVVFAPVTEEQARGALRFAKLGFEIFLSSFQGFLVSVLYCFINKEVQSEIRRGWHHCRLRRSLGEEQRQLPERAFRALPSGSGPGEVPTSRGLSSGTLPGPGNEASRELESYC

The target in a further experiment is T2, Estrogen receptor (Homo sapiens, UniProt P03372).
T2 sequence (P03372 whole entry): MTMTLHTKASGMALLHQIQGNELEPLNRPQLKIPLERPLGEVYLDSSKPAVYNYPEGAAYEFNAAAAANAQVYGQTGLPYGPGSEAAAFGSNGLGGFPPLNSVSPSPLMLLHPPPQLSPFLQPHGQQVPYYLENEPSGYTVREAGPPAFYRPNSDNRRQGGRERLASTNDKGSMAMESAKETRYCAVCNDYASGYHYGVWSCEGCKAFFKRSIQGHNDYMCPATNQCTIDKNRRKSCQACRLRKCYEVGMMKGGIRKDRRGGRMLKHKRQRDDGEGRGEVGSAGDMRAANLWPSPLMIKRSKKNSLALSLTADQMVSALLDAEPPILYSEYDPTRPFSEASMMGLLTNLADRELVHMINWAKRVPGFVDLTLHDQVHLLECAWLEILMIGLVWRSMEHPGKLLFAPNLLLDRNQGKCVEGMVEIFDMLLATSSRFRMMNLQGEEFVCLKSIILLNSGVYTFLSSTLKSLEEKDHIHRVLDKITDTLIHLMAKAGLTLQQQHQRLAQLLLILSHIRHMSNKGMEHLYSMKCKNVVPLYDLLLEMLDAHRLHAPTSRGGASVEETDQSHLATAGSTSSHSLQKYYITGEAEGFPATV

In experiment [2] the target is T3, 5-hydroxytryptamine receptor 1A (Homo sapiens, UniProt P08908).
T3 sequence (P08908 whole entry): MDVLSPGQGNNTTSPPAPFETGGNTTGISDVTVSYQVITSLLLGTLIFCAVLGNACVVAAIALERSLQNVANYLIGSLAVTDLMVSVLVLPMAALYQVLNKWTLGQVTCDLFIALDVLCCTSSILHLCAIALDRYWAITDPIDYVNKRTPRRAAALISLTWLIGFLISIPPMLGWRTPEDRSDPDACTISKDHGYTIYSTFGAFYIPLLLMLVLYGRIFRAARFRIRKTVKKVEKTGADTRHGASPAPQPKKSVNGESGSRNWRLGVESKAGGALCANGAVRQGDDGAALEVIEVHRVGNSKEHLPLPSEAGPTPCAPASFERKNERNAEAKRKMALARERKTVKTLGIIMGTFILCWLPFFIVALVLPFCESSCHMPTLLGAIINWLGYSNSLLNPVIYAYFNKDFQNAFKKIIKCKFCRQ

The target in experiment [3] is T4, Peroxisome proliferator-activated receptor gamma (Homo sapiens, UniProt P37231).
T4 sequence (P37231 whole entry): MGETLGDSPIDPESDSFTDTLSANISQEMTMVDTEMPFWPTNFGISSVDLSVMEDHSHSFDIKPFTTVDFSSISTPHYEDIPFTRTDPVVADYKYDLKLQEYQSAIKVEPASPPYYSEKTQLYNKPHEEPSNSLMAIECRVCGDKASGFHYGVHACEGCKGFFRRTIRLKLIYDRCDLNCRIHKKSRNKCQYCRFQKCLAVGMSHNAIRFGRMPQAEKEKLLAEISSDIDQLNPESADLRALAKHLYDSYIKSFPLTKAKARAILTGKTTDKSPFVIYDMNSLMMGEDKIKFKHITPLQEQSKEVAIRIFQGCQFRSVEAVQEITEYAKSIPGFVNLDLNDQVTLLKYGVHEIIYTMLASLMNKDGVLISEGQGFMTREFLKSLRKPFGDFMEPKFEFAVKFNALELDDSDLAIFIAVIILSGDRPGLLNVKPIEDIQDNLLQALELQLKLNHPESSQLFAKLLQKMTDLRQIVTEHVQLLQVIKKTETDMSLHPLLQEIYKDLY
Type of experiment: functional.

The target in experiment [4] is Neurotensin receptor type 1 (Homo sapiens, UniProt P30989).
Experiment [5] deals with Voltage-dependent N-type calcium channel subunit alpha-1B (Rattus norvegicus, UniProt Q02294). Format: functional.
The target of the next experiment is Glucagon receptor (Homo sapiens, UniProt P47871).
Experiment [6] concerns the target T5, Corticotropin-releasing factor receptor 1 (Homo sapiens, UniProt P34998).
T5 sequence (P34998 whole entry): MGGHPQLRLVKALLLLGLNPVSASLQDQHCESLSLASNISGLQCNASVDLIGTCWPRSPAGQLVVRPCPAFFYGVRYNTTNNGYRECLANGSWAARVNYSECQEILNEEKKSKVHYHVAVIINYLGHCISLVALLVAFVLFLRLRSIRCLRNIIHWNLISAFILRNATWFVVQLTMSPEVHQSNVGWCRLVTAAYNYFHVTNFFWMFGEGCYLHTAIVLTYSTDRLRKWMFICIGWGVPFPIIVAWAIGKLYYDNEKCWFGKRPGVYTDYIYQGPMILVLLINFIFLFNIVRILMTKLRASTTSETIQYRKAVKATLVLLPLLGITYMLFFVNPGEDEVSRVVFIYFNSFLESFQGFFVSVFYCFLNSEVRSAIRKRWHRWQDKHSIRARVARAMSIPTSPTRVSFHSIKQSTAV

The target of experiment [7] is Gamma-aminobutyric acid receptor subunit alpha-1/alpha-2/beta-2/gamma-2 (Homo sapiens, UniProt P14867+P18507+P47869+P47870). Type of experiment: functional, cell-based.
Experiment [8] has as its target Muscarinic acetylcholine receptor M3 (Homo sapiens, UniProt P20309).
Experiment [9] has as its target T6, 5-hydroxytryptamine receptor 2A (Homo sapiens, UniProt P28223). Type of experiment: functional, cell-based.
Experiment [10] has as its target T6, 5-hydroxytryptamine receptor 2A. Type of experiment: functional, cell-based. The source holds these as a separate data set.

A value given as a limit tells only on which side of the number the result lay.

The term AC50 denotes the concentration at which the activity in the assay is half-maximal.
Also: assay procedure not described here.

Gamma-aminobutyric acid receptor subunit alpha-1/alpha-2/beta-2/gamma-2, sequence (P14867 whole entry): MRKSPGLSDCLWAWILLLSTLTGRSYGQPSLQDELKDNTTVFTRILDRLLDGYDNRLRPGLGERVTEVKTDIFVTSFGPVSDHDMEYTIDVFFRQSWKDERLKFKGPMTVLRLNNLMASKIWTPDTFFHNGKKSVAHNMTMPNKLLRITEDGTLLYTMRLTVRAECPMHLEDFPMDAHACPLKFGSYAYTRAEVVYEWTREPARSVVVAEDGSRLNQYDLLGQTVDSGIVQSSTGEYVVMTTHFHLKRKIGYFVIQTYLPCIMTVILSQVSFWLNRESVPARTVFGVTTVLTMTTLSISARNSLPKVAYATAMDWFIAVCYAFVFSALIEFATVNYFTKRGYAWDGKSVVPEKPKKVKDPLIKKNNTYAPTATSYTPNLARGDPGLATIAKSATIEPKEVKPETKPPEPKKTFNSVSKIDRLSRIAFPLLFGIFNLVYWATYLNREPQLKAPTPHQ
Gamma-aminobutyric acid receptor subunit alpha-1/alpha-2/beta-2/gamma-2, sequence (P47870 whole entry): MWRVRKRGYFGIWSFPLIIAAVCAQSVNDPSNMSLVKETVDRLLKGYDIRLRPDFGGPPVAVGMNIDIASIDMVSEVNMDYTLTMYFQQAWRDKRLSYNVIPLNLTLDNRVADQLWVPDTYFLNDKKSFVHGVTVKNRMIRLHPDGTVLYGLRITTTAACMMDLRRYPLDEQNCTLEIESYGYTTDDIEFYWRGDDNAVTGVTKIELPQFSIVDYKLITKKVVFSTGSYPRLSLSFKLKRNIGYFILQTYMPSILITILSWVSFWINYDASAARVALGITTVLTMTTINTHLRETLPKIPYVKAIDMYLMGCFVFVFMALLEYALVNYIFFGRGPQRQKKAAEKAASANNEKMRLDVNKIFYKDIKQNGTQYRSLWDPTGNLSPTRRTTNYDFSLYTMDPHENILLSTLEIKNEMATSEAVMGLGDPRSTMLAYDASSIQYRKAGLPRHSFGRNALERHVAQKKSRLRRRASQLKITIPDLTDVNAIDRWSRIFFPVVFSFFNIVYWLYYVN
Gamma-aminobutyric acid receptor subunit alpha-1/alpha-2/beta-2/gamma-2, sequence (P18507 whole entry): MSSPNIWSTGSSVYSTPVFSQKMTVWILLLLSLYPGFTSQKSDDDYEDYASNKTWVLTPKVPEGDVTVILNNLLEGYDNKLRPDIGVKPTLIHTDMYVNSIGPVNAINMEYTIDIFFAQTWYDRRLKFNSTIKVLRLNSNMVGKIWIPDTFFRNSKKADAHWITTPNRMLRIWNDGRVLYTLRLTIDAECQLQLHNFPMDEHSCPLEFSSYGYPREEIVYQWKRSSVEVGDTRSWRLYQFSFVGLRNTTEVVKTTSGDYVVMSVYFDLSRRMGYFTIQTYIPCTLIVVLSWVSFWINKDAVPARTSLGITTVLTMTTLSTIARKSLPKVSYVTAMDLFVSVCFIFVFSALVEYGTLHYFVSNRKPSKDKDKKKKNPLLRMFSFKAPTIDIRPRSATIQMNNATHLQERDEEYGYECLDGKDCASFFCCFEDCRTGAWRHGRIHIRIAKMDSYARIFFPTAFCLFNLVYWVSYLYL
Gamma-aminobutyric acid receptor subunit alpha-1/alpha-2/beta-2/gamma-2, sequence (P47869 whole entry): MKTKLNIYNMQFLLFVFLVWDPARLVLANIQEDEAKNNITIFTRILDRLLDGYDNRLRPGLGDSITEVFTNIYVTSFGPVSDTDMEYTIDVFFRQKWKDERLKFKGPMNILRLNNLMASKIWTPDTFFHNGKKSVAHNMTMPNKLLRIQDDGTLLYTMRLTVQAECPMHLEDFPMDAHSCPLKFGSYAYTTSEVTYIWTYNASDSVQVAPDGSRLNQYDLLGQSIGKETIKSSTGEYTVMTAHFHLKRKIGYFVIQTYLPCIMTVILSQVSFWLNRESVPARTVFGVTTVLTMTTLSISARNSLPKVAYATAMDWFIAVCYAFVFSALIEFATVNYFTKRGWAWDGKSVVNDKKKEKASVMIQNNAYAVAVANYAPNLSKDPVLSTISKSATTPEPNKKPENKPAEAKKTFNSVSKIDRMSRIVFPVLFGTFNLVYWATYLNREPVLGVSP
Muscarinic acetylcholine receptor M3, sequence (P20309 whole entry): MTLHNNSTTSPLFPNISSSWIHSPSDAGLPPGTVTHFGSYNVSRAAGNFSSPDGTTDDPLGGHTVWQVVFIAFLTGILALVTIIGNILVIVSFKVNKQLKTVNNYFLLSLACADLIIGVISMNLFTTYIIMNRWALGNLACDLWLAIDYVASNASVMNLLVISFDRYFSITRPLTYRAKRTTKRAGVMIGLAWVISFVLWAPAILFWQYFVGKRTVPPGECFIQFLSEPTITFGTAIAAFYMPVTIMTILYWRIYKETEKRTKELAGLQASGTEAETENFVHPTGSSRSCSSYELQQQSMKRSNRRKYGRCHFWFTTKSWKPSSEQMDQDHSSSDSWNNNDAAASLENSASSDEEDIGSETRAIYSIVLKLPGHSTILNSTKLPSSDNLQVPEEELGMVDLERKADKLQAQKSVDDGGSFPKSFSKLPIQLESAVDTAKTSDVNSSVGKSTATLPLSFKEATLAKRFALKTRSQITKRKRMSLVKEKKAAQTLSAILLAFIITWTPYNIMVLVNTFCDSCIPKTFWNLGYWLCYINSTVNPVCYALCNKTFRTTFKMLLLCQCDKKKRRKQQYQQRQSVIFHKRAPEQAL
T6 sequence (P28223 whole entry): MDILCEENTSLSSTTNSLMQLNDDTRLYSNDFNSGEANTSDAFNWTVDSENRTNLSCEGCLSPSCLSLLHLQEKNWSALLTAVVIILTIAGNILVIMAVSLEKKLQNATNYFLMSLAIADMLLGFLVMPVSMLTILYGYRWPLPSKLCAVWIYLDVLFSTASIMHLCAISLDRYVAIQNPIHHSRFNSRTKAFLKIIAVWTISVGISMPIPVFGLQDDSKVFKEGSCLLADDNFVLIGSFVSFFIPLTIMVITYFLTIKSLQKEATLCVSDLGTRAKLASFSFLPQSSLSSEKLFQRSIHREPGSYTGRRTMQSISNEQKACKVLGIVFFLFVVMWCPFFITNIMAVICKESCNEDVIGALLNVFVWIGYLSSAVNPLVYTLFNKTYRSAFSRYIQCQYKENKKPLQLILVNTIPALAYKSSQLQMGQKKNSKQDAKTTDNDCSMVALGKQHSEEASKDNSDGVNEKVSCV
Neurotensin receptor type 1, sequence (P30989 whole entry): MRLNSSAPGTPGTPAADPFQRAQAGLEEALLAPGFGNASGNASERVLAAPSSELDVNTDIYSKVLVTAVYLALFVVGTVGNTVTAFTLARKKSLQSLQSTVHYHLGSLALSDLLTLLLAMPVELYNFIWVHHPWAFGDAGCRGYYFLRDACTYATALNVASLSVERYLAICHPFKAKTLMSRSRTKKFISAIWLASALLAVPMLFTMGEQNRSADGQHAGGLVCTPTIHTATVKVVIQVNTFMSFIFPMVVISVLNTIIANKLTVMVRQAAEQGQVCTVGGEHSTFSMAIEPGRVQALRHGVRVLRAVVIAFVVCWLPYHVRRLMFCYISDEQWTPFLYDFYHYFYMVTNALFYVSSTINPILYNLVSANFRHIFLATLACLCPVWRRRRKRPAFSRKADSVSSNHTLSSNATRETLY
Glucagon receptor, sequence (P47871 whole entry): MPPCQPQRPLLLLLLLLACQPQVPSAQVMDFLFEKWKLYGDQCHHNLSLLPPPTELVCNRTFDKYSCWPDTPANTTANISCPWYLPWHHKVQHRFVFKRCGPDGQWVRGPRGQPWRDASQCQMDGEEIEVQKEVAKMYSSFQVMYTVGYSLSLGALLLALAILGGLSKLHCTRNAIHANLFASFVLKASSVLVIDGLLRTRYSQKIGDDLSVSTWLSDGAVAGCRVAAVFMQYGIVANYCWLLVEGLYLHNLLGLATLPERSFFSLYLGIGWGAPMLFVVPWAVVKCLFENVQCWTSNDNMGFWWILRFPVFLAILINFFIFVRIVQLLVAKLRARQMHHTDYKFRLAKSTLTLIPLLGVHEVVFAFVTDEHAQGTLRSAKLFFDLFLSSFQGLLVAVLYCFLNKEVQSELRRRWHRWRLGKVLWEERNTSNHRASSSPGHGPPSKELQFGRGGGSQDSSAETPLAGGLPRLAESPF

As to `CCOc1nc2cccc(C(=O)O)c2n1Cc1ccc(-c2ccccc2-c2nnn[nH]2)cc1`, the AC50 in experiment [1] is more than 30 µM; on Estrogen receptor, more than 30 µM; in experiment [2], more than 10 µM; in [3], more than 30 µM; in experiment [4], more than 30 µM; in [5] it was more than 10 µM. Also, the AC50 (at Glucagon receptor; in experiment [6]; in experiment [7]) was more than 30 µM throughout.

Take `CCCc1nc2c(C)cc(-c3nc4ccccc4n3C)cc2n1Cc1ccc(-c2ccccc2C(=O)O)cc1`: the AC50 in experiment [1] was more than 30 µM; at Estrogen receptor, more than 30 µM; in [2], more than 10 µM; in [3], more than 30 µM; in experiment [4], more than 30 µM; in experiment [5], more than 10 µM. Besides, the AC50 (at Glucagon receptor; in [6]; in experiment [7]; in experiment [8]) was more than 30 µM throughout.

In the case of `CCOc1cc([C@@H](CS(C)(=O)=O)N2C(=O)c3cccc(NC(C)=O)c3C2=O)ccc1OC`, the AC50 in [3], in [9], in [10], in [7] and in [8] was more than 30 µM each time.

For `CC1(C)S[C@@H]2[C@H](NC(=O)C(C(=O)O)c3ccccc3)C(=O)N2[C@H]1C(=O)O` (some centres not stated) [CARBENICILLIN], the AC50 in experiment [3], in experiment [9], in [10], in [7] and in experiment [8] was more than 30 µM in each case.

In the case of `Cc1nnc(SCC2=C(C(=O)O)N3C(=O)[C@@H](NC(=O)Cn4cnnn4)[C@H]3SC2)s1` [CEFAZOLIN], the AC50 is more than 30 µM at Estrogen receptor; more than 300 µM in experiment [3]; more than 300 µM in experiment [9]; more than 30 µM in [10]; more than 2400 µM in [7]; more than 300 µM in [8].

Take `CC(C)(O/N=C(\C(=O)N[C@@H]1C(=O)N2C(C(=O)[O-])=C(C[n+]3ccccc3)CS[C@H]12)c1csc(N)n1)C(=O)O` [CEFTAZIDIME]: the AC50 at Estrogen receptor is more than 30 µM; in experiment [3], more than 300 µM; in experiment [9] it was more than 300 µM; in [10], more than 30 µM; in experiment [7], more than 2400 µM; in [8] it was more than 300 µM.

For the molecule `Clc1ccc(Cn2c(CN3CCCC3)nc3ccccc32)cc1` [CLEMIZOLE], the AC50 is more than 30 µM in experiment [3]; more than 30 µM in [9]; 15 µM in experiment [10]; more than 30 µM in experiment [7]; more than 30 µM in experiment [8].

On to `CCC(=O)O[C@]1(C(=O)CCl)[C@@H](C)C[C@H]2[C@@H]3CCC4=CC(=O)C=C[C@]4(C)[C@@]3(F)[C@@H](O)C[C@@]21C` [CLOBETASOL PROPIONATE], for which the concentration at half-maximal activity (AC50) in experiment [3] and in [7] was more than 30 µM throughout.

As for `CNC[C@H](O)c1ccc(O)c(O)c1` [EPINEPHRINE], the AC50 in [3] and in [7] was more than 30 µM each time.

Regarding `Cc1onc(-c2c(F)cccc2Cl)c1C(=O)N[C@@H]1C(=O)N2[C@@H]1SC(C)(C)[C@@H]2C(=O)O` [FLOXACILLIN], the AC50 in experiment [3], in experiment [9], in experiment [10], in experiment [7] and in experiment [8] was more than 30 µM each time.

Consider `COc1cc(C(C)=O)ccc1OCCCN1CCC(c2noc3cc(F)ccc23)CC1` [ILOPERIDONE], for which the AC50 in experiment [2] is 0.0785 µM; in experiment [3], more than 30 µM; in experiment [7], more than 30 µM; in experiment [8], more than 30 µM.

For the molecule `S=P(N1CC1)(N1CC1)N1CC1` [THIOTEPA], the figures for the AC50 in [3], in experiment [7] and in experiment [8] were more than 30 µM, more than 30 µM and 9.3 µM, respectively.

Values taken from ChEMBL document CHEMBL5291721, “A preclinical secondary pharmacology resource illuminates target-adverse drug reaction associations of marketed drugs” (Nat Commun, 2023).
